US9034848B2, “Phenyl carbamate compounds for use in preventing or treating stroke” (Bio-Pharm Solutions Co., Ltd., priority 2011, dated 2015)

Columns and labels:
Assay type in all cases: in vivo
[1] = test system: SD rats; assay: Permanent middle cerebral artery occlusion (pMCAO) model, TTC-stained infarct area; details: 60 mg/kg i.p. b.i.d.; for infraction areas compared with control (neuro-therapeutic): 1st inj. 0.25 hr after occlusion, 8 hr interval, occlusion 1, 3, 7 days
[2] = test system: SD rats; assay: Transient middle cerebral artery occlusion (tMCAO) model, TTC-stained infarct area; details: 2 hr occlusion, 24 hr reperfusion; for infraction areas compared with control (neuro-therapeutic): 60 mg/kg i.p. 15 minutes after occlusion; for infraction areas compared with control (neuro-prevention): 60 mg/kg i.p. 15 minutes before occlusion
Method: 1.1. Neuro-Prevention Study of Transient MCAO (tMCAO) Model
Male, SD rats weighing 290-300 g were purchased from Nara Bio Tech. (Pyoung-tek, Korea) Animals were maintained with laboratory animal food and water ad libitum in an animal facility with a 12 h light/dark cycle at a controlled temperature (23±2° C.) until used. All animal experiments were carried out in accordance with the Korean Academy of Medical Sciences Guide for Care and Use of Laboratory Animals.
The rats were anesthetized with isoflurane (Hana-phram., Korea) and anesthesia machine was set to 1.0 L/min N2O (Surgi-Vet, USA). Isoflurane and N2O gas ratio was 3:3 for induction anesthesia, and lower to 2:1 (isoflurane:N2O) to maintain anesthesia. Body temperature was monitored continuously by a rectal thermo meter probe and maintained at 37±0.5° C. by placing the animals on a heating pad (Jung-do B&P, Korea). The MCA (middle cerebral artery) occlusion was induced by the procedure of Longa et al. (1989) with minor modifications. Briefly, surgical nylon suture thread (4-0, Diameter: 0.39 mm, Coating length: 0.56 mm, Doccol suture, USA) with a round tip was advanced from the external carotid artery (ECA) into the lumen of the internal carotid artery (ICA) to occlude the origin of the MCA. The wound was closed, and the animals were allowed to home cage for recover.
Priority, the infraction areas when the compound of Example 1 was treated at various time points were measured for peak time when is the best efficacy time (see FIG. 1). And then, rats received 60 mg/kg dose of each compound of Examples 1, 65 and 67, intraperitoneally (i.p.) at 15 minutes before MCA occlusion (see FIG. 2, animal numbers of each compound of Examples 1 (n=8), 65 (n=5) and 67 (n=6)). All compounds were dissolved in 30% polyethylene glycol (Compound of Example 1) or 20% (w/v) Tween 80 (Compounds of Examples 65 and 67) once in volume of 4 ul/g bw. Control group (n=33) was identical to those in the MCA occlusion rats except for injection of vehicle (4 ul/g bw of 30% (w/v) polyethylene glycol or 20% (w/v) Tween 80, intraperitoneally (i.p.)). Two hours after MCA occlusion, reperfusion was accomplished by pulling the suture thread back to the bifurcation until the tip cleared the ICA.
The experimentation was identical performed as described in Experimental Example 1.1, except that each compound examples of 1, 65 and 67 was administered at 15 minutes after MCA occlusion (FIG. 3, animal numbers of each compound of Examples 1 (n=7), 65 (n=6) and 67 (n=5)), to test the therapeutic effect of the compounds. Control group (n=33) was identical to those in the MCA occlusion rats except for injection of vehicle (4 ul/g bw of 30% polyethylene glycol or 20% Tween 80, intraperitoneally (i.p.)).
After 24 hours of reperfusion, rats were anesthetized with isoflurane (Hana-phram., Korea). The brain was then quickly removed and cut into 2-mm thick coronal block slices in brain matrix. The slices were immersed in a 2% (w/v) solution of 2,3,5-triphenyltetrazolium chloride (TTC) in normal saline at 37° C. for 10 min and then fixed in 10% (v/v) formalin solution at room temperature for overnight. The TTC stained brain slices were photographed using a digital camera (5000D, Nikon, Japan). The size of infarct was calculated with an image analysis system (Image-Pro Plus 4.0, Media Cybernetics, USA) and measurement of infarct area were expressed as the percentage (% control) of infarct area in reference to the compared with ipsilateral hemisphere of control group (see FIGS. 2 and 3).
Statistical analysis results are presented as the mean±S.E.M. and measures analysis of variance was used for comparison of the results of hemispheric infarct area, obtained from 5˜33 rats in each group. Data were analyzed by either one-way analysis of variance (ANOVA) followed by Tukey's test for multiple comparisons. p values less than 0.05 were considered to be statistically significant (see FIGS. 1 and 4).

[3] = test system: mice; assay: MES test (anti-excitotoxicity activity); details: Mus musculus, po, 4 mice, read-out: MES test(po) Protection %; for responders at 100 mg/kg: injection amount 100 mg/kg

Row | SMILES | infraction areas compared with control (neuro-therapeutic) [1] | infraction areas compared with control (neuro-therapeutic) [2] | infraction areas compared with control (neuro-prevention) [2] | responders at 100 mg/kg [3] | also measured
1 | C[C@H](OC(N)=O)[C@@H](O)c1ccccc1Cl [Compound 1, 1-(2-chlorophenyl)-(S)-1-hydroxypropyl-(S)-2-carbamate] | significantly reduced | significantly reduced | significantly reduced | – | neuro-therapeutic effect, TTC-stained infarction area ([1]; 1st inj. 1 hr after occlusion, occlusion for 3 days): neuro-therapeutic effect
2 | CCCC[C@H](OC(N)=O)[C@@H](O)c1ccccc1Cl [Compound 12, 1-(2-chlorophenyl)-(S)-1-hydroxyhexyl-(S)-2-carbamate] | – | – | – | 75% | –
3 | CCCC[C@@H](OC(N)=O)[C@H](O)c1ccccc1Cl [Compound 13, 1-(2-chlorophenyl)-(R)-1-hydroxyhexyl-(R)-2-carbamate] | – | – | – | – | responders at 200 mg/kg ([3]; injection amount 200 mg/kg): 75%
4 | CCCC[C@H](OC(N)=O)[C@@H](O)c1ccc(Cl)cc1Cl [Compound 43, 1-(2,4-dichlorophenyl)-(S)-1-hydroxyhexyl-(S)-2-carbamate] | – | – | – | 25% | –
5 | CCCC[C@H](OC(N)=O)[C@@H](O)c1c(Cl)cccc1Cl [Compound 44, 1-(2,6-dichlorophenyl)-(S)-1-hydroxyhexyl-(S)-2-carbamate] | – | – | – | 75% | –
6 | C[C@H](OC(N)=O)[C@@H](O)c1ccccc1I [Compound 65, 1-(2-iodophenyl)-(S)-1-hydroxypropyl-(S)-2-carbamate] | neuro-therapeutic effects | significantly reduced | significantly reduced | – | responders at 50 mg/kg ([3]; injection amount 50 mg/kg): 100%
7 | CC[C@H](OC(N)=O)[C@@H](O)c1ccccc1I [Compound 67, 1-(2-iodophenyl)-(S)-1-hydroxybutyl-(S)-2-carbamate] | neuro-therapeutic effects | significantly reduced | significantly reduced | 100% | –
